Experimental findings from BindingDB's records for doi:10.1016/0006-291x(92)90654-4 (Veterans Affairs Medical Center, 1992) are described below.

Broadly, the Ki is the dissociation constant of the complex between target and ligand, obtained from inhibition or displacement.

Chain of 5-hydroxytryptamine receptor 1B (P28222 whole entry): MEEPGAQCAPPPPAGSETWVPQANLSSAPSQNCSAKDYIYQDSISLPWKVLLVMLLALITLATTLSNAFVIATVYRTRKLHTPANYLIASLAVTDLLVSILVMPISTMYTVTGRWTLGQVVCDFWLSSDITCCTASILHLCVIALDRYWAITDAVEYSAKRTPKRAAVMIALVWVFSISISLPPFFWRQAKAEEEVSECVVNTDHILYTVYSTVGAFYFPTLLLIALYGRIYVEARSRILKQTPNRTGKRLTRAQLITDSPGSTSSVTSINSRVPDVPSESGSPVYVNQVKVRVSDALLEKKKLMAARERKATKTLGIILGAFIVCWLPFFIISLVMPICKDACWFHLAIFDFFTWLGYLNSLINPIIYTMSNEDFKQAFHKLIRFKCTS

This assay concerns the target 5-hydroxytryptamine receptor 1B (Homo sapiens, UniProt P28222).
As for `CN1C2CCC1CC(OC(=O)c1c[nH]c3ccccc13)C2` (stereo unspecified), the Ki is greater than 10000 nM.
Consider `COc1ccc2[nH]cc(C3=CCNCC3)c2c1` [5-Methoxy-3-(1,2,3,6-tetrahydro-pyridin-4-yl)-1H-indole(RU-24969)], for which the affinity, expressed as Ki, was 12.4 nM.
Then `CN1CC(C(=O)N[C@]2(C)O[C@@]3(O)C4CCCN4C(=O)[C@H](Cc4ccccc4)N3C2=O)CC2c3cccc4[nH]cc(c34)CC21` (stereo partly drawn) [7-Methyl-4,6,6a,7,8,9,10,10a-octahydro-indolo[4,3-fg]quinoline-9-carboxylic acid ((2R,5S,10bS)-5-benzyl-10b-hydroxy-2-methyl-3,6-dioxo-octahydro-oxazolo[3,2-a]pyrrolo[2,1-c]pyrazin-2-yl)-amide], with 0.006 nM; and `O=C(CCCN1CCC2(CC1)C(=O)NCN2c1ccccc1)c1ccc(F)cc1` [8-[4-(4-fluorophenyl)-4-oxidanylidene-butyl]-1-phenyl-1,3,8-triazaspiro[4.5]decan-4-one], with greater than 10000 nM; and `CN1CCN(c2nc3cc(C(F)(F)F)ccc3n3cccc23)CC1` [CAS_109028-10-6], with 0.04 nM.
With `CN1C[C@@H](NS(=O)(=O)N(C)C)C[C@@H]2c3cccc4c3c(cn4C)C[C@H]21` [MESULERGINE], the Ki was found to be 640 nM.
In the case of `CC(C)(C)NCC(O)COc1cccc2[nH]c(C#N)cc12` (stereo unspecified) [NSC_155346], the Ki turned out to be 22 nM.
The molecule `Cc1cc(C(C)(C)C)c(O)c(C)c1CC1=NCCN1` [SMR000059324] displayed a Ki of 0.26 nM.
In the case of `FC(F)(F)c1cccc(N2CCNCC2)c1` [TFMPP] it was 28 nM; in that of `Clc1cccc(N2CCNCC2)c1` [mCPP], 90 nM; in that of `CSc1ccc2c(c1)C(N1CCN(C)CC1)Cc1ccccc1S2` (stereo unspecified) [methanesulfonic acid;1-methyl-4-(3-methylsulfanyl-5,6-dihydrobenzo[b][1]benzothiepin-5-yl)piperazine], 0.2 nM.
